# Laboratory results: publication PMC3843955 (Antiviral research, 2013)
# Values joined by “and” are separate entries in the source; they are usually repeats but may differ in a detail not shown here. Equal entries are not always repeated. Where two headings read alike, the source gives them in different places.
# Assays:
# MRC-5 fibroblasts = assay: CellTiter-Glo cytotoxicity assay, MRC-5; assay type: cell-based, human; details: uninfected MRC-5, ± standard deviation; for Yield inhibition MRC-5 TD50: CellTiter-Glo cytotoxicity assay after 5 d exposure to drugs; for Spread inhibition MRC-5 TD50: CellTiter-Glo cytotoxicity assay after 14 d exposure to drugs
# MCMV [1] = details: read-out: EC50 for MCMV, cited from earlier work
# MCMV [2] = details: sub-lethal MCMV infection in mice; ref Go et al., 2011; cited from earlier work
# [3] = human, in vivo; cited from earlier work
# HCMV = HCMV inhibition across spread inhibition and yield reduction assays; details: TD50 versus anti-HCMV EC50
SMILES,Yield inhibition MRC-5 TD50 (MRC-5 fibroblasts),Spread inhibition MRC-5 TD50 (MRC-5 fibroblasts),"EC50 (MCMV [1]; ref Go et al., 2011)",viral load in livers and spleen (MCMV [2]),peak plasma level [3],cytotoxicity TD50 fold higher than antiviral EC50 (HCMV),"EC50 (MCMV [1]; ref Lembo et al., 2000)",peak plasma concentration [3]
"O=C(NO)c1ccc(O)c(O)c1 [DX, didox]",256 ± 5.7 µM,146 ± 0.7 µM,10 to 25 µM,failed to decrease viral load in livers and spleen,approximately 300 µM,1.5- to 2 fold and 2 fold,,
"NC(=O)NO [HU, hydroxyurea]","14,500 ± 5400 µM",4253 ± 701 µM,,,,,3 µM,264 to 660 µM
"N/C(=N\O)c1cc(O)c(O)c(O)c1 [TX, trimidox]",166 ± 57 µM,86 ± 4.2 µM,,,,1.5- to 2 fold and 2 fold,,
